{
  "source": "patent US20090030037A1",
  "about": "“Sustained Release Formulation and Dosing Schedules of Leukotriene Synthesis Inhibitor for Human Therapy” (deCODE Genetics ehf., priority 2005, published 2009)",
  "key": {"CD40L": {"test_system": "CD40L", "assay": "Study DG-031-204: CD40L", "type": "in vivo, human", "details": "after 4 weeks", "procedure": "An additional single site, open label study was carried out to obtain biomarker and safety data on additional DG-031 doses (i.e., 1000 mg and 1500 mg). This study examined the safety, tolerability and dose-related effects of DG-031 on inflammatory biomarkers including: LTB4, hsCRP, and MPO. A total of 119 patients with a prior history of CAD and MI were randomized to receive either 1000 mg DG-031 (500 mg BID) or 1500 mg DG-031 (500 mg TID) daily for 4-6 weeks. Treatment with DG-031 in addition to the subject's standard care, medication, and treatment, was prescribed by the patient's cardiologist. A majority of the subjects received statin therapy before, during and after the study. Follow-up assessments were performed 2 weeks after the end of study drug administration.\nThe biomarkers were analyzed as described in Example 1. Statistical analysis of the data was carried out using a one-sample t-test on change from baseline with a two-sided nominal significance level of 0.050. Biomarker concentrations were log-transformed and a simple last observation carried forward (LOCF) scheme was used to impute missing observations.\nCD40L was measured at 2-week intervals. […] After 4 weeks, there was a 22% (p<0.001; n=55) reduction in CD40L in the 500 mg BID group and a 21% (p<0.001; n=57) reduction in the 500 mg TID group. CD40L levels remained suppressed at the 2 week follow up visit."}, "[1]": {"test_system": "MPO release, human whole blood", "assay": "In vitro MPO release in human whole blood after ionomycin stimulation", "type": "cell-based", "procedure": "Neutrophils and other cells in human whole blood respond in vitro to activation by a calcium ionophore (e.g., ionomycin), with an increase in LTB4 production and with coupled release of MPO stimulated in part by LTB4 production in the assay. The effect of DG-031 on the capacity for production of LTB4 in vitro after ionomycin stimulation was evaluated at concentrations ranging from 0.1 μM up to 240 μM.\nBlood samples collected from the clinical study described in Example 2 were evaluated assuming that the ex vivo response profile in clinical samples parallels the in vitro response over the entire concentration range, 250 mg TID dosing which maintains concentrations above 2-3 μg/ml (˜7 μM) should maintain a 30% or greater reduction of capacity for LTB4 production at all times. Peak concentrations of DG-031 with 250 mg TID dosing were about 10 μg/ml (28 μM) and should be associated with about 65% reduction of capacity for LTB4 production. The typical patient's pharmacodynamic response was expected to fluctuate between 30% and 65% reduction of capacity for LTB4 production over the course of a dosing interval."}, "[2]": {"details": "healthy volunteers, total daily dose 100-1000 mg, less than 14 days; cited from earlier work"}, "[3]": {"assay": "Study DG-031-204: steady state DG-031 plasma concentrations", "type": "in vivo, human", "details": "for concentration at 0 h / concentration at 0.5 h / concentration at 1 h / concentration at 2 h / concentration at 4 h / concentration at 6 h: human, plasma, oral, 500 mg, read-out: Steady state DG-031 exposure, Geometric Mean; for concentration at 0 h: 0 hr post dose; for concentration at 0.5 h: 0.5 hr post dose; for concentration at 1 h: 1 hr post dose; for concentration at 2 h: 2 hr post dose; for concentration at 4 h: 4 hr post dose; for concentration at 6 h: 6 hr post dose", "procedure": "Blood samples were collected for determining DG-031 concentrations in a subset of patients (n=22). Samples were collected just prior to dosing and at 0.5, 1, 2, 4, and 6 hours following administration of DG-031 500 mg BID or TID."}},
  "note": "“And” between values parts separate entries of the source, which are not always exact repeats. Equal entries are not always repeated. Where two headings read alike, the source gives them in different places.",
  "data": [
    {"smiles": "O=C(O)[C@@H](c1ccc(OCc2ccc3ccccc3n2)cc1)C1CCCC1", "note": "[DG-031, (R)-(+)-alpha-cyclopentyl-4-(2-quinolinylmethoxy)-Benzeneacetic acid]", "values": [
      {"measurement": "Reduction in CD40L", "setting": "CD40L; 500 mg BID", "result": 22, "unit": "%"},
      {"measurement": "Reduction in CD40L", "setting": "CD40L; 500 mg TID", "result": 21, "unit": "%"},
      {"measurement": "Concentration at which MPO release is maximally inhibited in vitro", "setting": "[1]", "result": "about 6 μM and ~2 μg/ml"},
      {"measurement": "Safety and tolerability", "setting": "[2]", "result": "safe and well tolerated"},
      {"measurement": "DG-031 concentrations observed", "setting": "[3]; 500 mg BID or TID, subset n=22", "result": "up to 20.3 μg/mL"},
      {"measurement": "Mean trough concentration", "setting": "[3]; 500 mg BID, steady state", "result": 4.3, "unit": "µg/mL"},
      {"measurement": "Observed mean peak concentration", "setting": "[3]; 500 mg BID, steady state", "result": 8.8, "unit": "µg/mL"},
      {"measurement": "Observed peak to trough fluctuation", "setting": "[3]; 12 hour period, BID dosing regimen", "result": "2-3 fold"},
      {"measurement": "concentration at 0 h", "setting": "[3]; 500 mg BID", "result": 4300, "unit": "ng/mL"},
      {"measurement": "concentration at 0.5 h", "setting": "[3]; 500 mg BID", "result": 4700, "unit": "ng/mL"},
      {"measurement": "concentration at 1 h", "setting": "[3]; 500 mg BID", "result": 6100, "unit": "ng/mL"},
      {"measurement": "concentration at 2 h", "setting": "[3]; 500 mg BID", "result": 8600, "unit": "ng/mL"},
      {"measurement": "concentration at 4 h", "setting": "[3]; 500 mg BID", "result": 8800, "unit": "ng/mL"},
      {"measurement": "concentration at 6 h", "setting": "[3]; 500 mg BID", "result": 7000, "unit": "ng/mL"},
      {"measurement": "concentration at 0 h", "setting": "[3]; 500 mg TID", "result": 6900, "unit": "ng/mL"},
      {"measurement": "concentration at 0.5 h", "setting": "[3]; 500 mg TID", "result": 6800, "unit": "ng/mL"},
      {"measurement": "concentration at 1 h", "setting": "[3]; 500 mg TID", "result": 8500, "unit": "ng/mL"},
      {"measurement": "concentration at 2 h", "setting": "[3]; 500 mg TID", "result": 10100, "unit": "ng/mL"},
      {"measurement": "concentration at 4 h", "setting": "[3]; 500 mg TID", "result": 10000, "unit": "ng/mL"},
      {"measurement": "concentration at 6 h", "setting": "[3]; 500 mg TID", "result": 7400, "unit": "ng/mL"}
    ]}
  ]
}
